Experimental data: patent US10131652B2, “Pyrimidinyloxy benzene derivatives as herbicides” (E. I. DU PONT DE NEMOURS AND COMPANY, priority 2014, dated 2018)

What was measured:
Assay type in all cases: in vivo
[1] = tested on: small-flower umbrella sedge (Cyperus difformis); assay: Test C flooded paddy test plant response; conditions: Flood, 250 g ai/ha; scale of 0 to 100 where 0 is no effect and 100 is complete control; 13 to 15 days
Method in brief: (§1)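 Scored visually on a 0–100 scale (100 = complete control) against untreated plants 13 to 15 days after treatment in the greenhouse. Compounds went into paddy water of pots flooded to 3 cm, holding 2-leaf-stage plants.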

[2] = tested on: barnyardgrass (Echinochloa crus-galli); assay: Test C flooded paddy test plant response; conditions: Flood, 250 g ai/ha; scale of 0 to 100 where 0 is no effect and 100 is complete control; 13 to 15 days
Method in brief: as §1

rice (Oryza sativa) = assay: Test C flooded paddy test plant response; conditions: Flood, 250 g ai/ha; scale of 0 to 100 where 0 is no effect and 100 is complete control; 13 to 15 days
Method in brief: as §1

[3] = tested on: ducksalad (Heteranthera limosa); assay: Test C flooded paddy test plant response; conditions: Flood, 250 g ai/ha; scale of 0 to 100 where 0 is no effect and 100 is complete control; 13 to 15 days
Method in brief: as §1

[4] = tested on: chickweed (common chickweed, Stellaria media); assay: Test D postemergence plant response; conditions: for Plant response rating (scale 0 to 100), Chickweed: 16 g ai/ha; for Chickweed plant response rating: 31 g ai/ha, scale 0 to 100 (0 no effect, 100 complete control); for Plant response rating, Chickweed: scale 0 to 100, 0 no effect, 100 complete control
Method in brief: (§2)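 Plants grown in pots of peat moss–vermiculite medium with wetting agent and starter nutrients received postemergence applications of the formulated test chemicals at 2 to 18 cm height (1- to 4-leaf stage). After 13 to 15 days in a greenhouse, injury was scored visually against untreated controls, 0 (no effect) to 100 (complete control).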

wild oat (Avena fatua) = assay: Test D postemergence plant response; conditions: for Plant response rating (scale 0 to 100), Oat, Wild: 16 g ai/ha; for Plant response rating, Oat, Wild: 125 g ai/ha
Method in brief: as §2

kochia (Kochia scoparia) [5] = assay: Test D postemergence plant response; conditions: for Plant response rating (scale 0 to 100), Kochia: 16 g ai/ha; for Kochia plant response rating: 31 g ai/ha, scale 0 to 100 (0 no effect, 100 complete control); for Plant response rating, Kochia: scale 0 to 100, 0 no effect, 100 complete control
Method in brief: as §2

[6] = tested on: barnyardgrass (Echinochloa crus-galli); assay: Test B pre-/postemergence plant response
Method in brief: (§3)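 Visual injury rating, 0 (no effect) to 100 (complete control), vs untreated controls after ~10 d greenhouse. Pre: directed soil spray after planting in loam/sand. Post: plants 2–10 cm, 1–2 leaf stage. Compound in non-phytotoxic solvent plus surfactant.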

[7] = tested on: ragweed (common ragweed, Ambrosia elatior); assay: Test B pre-/postemergence plant response
Method in brief: as §3

[8] = tested on: Italian ryegrass (Lolium multiflorum); assay: Test B pre-/postemergence plant response
Method in brief: as §3

corn (Zea mays) = assay: Test B pre-/postemergence plant response
Method in brief: as §3

[9] = tested on: pigweed (Amaranthus retroflexus); assay: Test B pre-/postemergence plant response
Method in brief: as §3

[10] = tested on: giant foxtail (Setaria faberii); assay: Test B pre-/postemergence plant response
Method in brief: as §3

[11] = tested on: wheat (Triticum aestivum); assay: Test B pre-/postemergence plant response
Method in brief: as §3

kochia (Kochia scoparia) [12] = assay: Test B pre-/postemergence plant response
Method in brief: as §3

[13] = tested on: galium (catchweed bedstraw, Galium aparine); assay: Test B postemergence plant response
Method in brief: (§4)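 Plants grown in pots of loam soil–sand blend were sprayed postemergence with formulated test chemicals at 2 to 10 cm height, one- to two-leaf stage. After about 10 days in a greenhouse, injury was visually rated against untreated controls on a 0 to 100 scale (0 no effect, 100 complete control).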

[14] = tested on: blackgrass (Alopecurus myosuroides); assay: Test B postemergence plant response
Method in brief: as §4

[15] = 31 g ai/ha, scale 0 to 100 (0 no effect, 100 complete control)
[16] = 62 g ai/ha, scale 0 to 100, 0 no effect, 100 complete control
[17] = scale 0 to 100, 0 no effect, 100 complete control
[18] = 31 g ai/ha, Preemergence, 0 to 100 scale where 0 is no effect and 100 is complete control
[19] = 125 g ai/ha, postemergence, 0 to 100 scale, 0 no effect, 100 complete control
[20] = Postemergence, 31 g ai/ha, 0 to 100 scale (0 no effect, 100 complete control)
[21] = Preemergence, 125 g ai/ha, 0 to 100 scale (0 no effect, 100 complete control)

Fc1cccc(Oc2ncc(Cl)cn2)c1-c1cc(C(F)(F)F)no1 [Compound 228]
30: Plant response rating, Barnyardgrass [6, 20] | Plant response rating, Ragweed [7, 20] | Ragweed plant response rating [7, 21] | Plant response rating, Ryegrass, Italian [8, 18] | Plant response rating, Corn (corn (Zea mays); [19])
70: Plant response rating, Barnyardgrass [6, 19] | Ryegrass, Italian plant response rating [8, 21] | Plant response rating, Kochia (kochia (Kochia scoparia) [12]; [18])
90: Sedge, Umbrella plant response rating [1] | Plant response rating, Ryegrass, Italian [8, 19] | Plant response rating, Foxtail, Giant [10, 18] | Plant response rating, Foxtail, Giant [10, 19]
60: Plant response rating, Blackgrass [14, 20]
98: Plant response rating, Chickweed ([4]; 62 g ai/ha)
100: Plant response rating, Chickweed ([4]; 125 g ai/ha) | Plant response rating (scale 0 to 100), Kochia (kochia (Kochia scoparia) [5]) | Kochia plant response rating (kochia (Kochia scoparia) [5]) | Plant response rating, Kochia (kochia (Kochia scoparia) [5]; 62 g ai/ha) | Plant response rating, Kochia (kochia (Kochia scoparia) [5]; 125 g ai/ha) | Barnyardgrass plant response rating [6, 21] | Plant response rating, Pigweed [9, 18] | Plant response rating, Pigweed [9, 19] | Plant response rating, Pigweed [9, 20] | Pigweed plant response rating [9, 21] | Foxtail, Giant plant response rating [10, 21] | Plant response rating, Kochia (kochia (Kochia scoparia) [12]; [19]) | Plant response rating, Kochia (kochia (Kochia scoparia) [12]; [20]) | Kochia plant response rating (kochia (Kochia scoparia) [12]; [21]) | Plant response rating, Galium [13, 19] | Plant response rating, Galium [13, 20] | Plant response rating, Blackgrass [14, 19]
50: Plant response rating, Barnyardgrass [6, 18] | Plant response rating, Wheat [11, 19]
20: Oat, Wild plant response rating (wild oat (Avena fatua); [15]) | Plant response rating, Ryegrass, Italian [8, 20] | Plant response rating, Corn (corn (Zea mays); [20])
55: Plant response rating, Oat, Wild (wild oat (Avena fatua); [17])
0: Rice plant response rating (rice (Oryza sativa)) | Plant response rating, Ragweed [7, 18] | Plant response rating, Wheat [11, 20]
10: Plant response rating (scale 0 to 100), Oat, Wild (wild oat (Avena fatua))
40: Barnyardgrass plant response rating [2] | Oat, Wild plant response rating (wild oat (Avena fatua); [16]) | Plant response rating, Ragweed [7, 19] | Plant response rating, Foxtail, Giant [10, 20]
85: Ducksalad plant response rating [3] | Plant response rating (scale 0 to 100), Chickweed [4] | Chickweed plant response rating [4]

Cc1cc(-c2c(F)cccc2Oc2ncc(Cl)cn2)on1 [Compound 229]
80: Plant response rating, Chickweed ([4]; 62 g ai/ha) | Plant response rating, Foxtail, Giant [10, 19] | Plant response rating, Kochia (kochia (Kochia scoparia) [12]; [18]) | Plant response rating, Galium [13, 20] | Plant response rating, Blackgrass [14, 19]
30: Ryegrass, Italian plant response rating [8, 21] | Plant response rating, Corn (corn (Zea mays); [19]) | Plant response rating, Blackgrass [14, 20]
98: Plant response rating, Kochia (kochia (Kochia scoparia) [5]; 62 g ai/ha) | Plant response rating, Kochia (kochia (Kochia scoparia) [5]; 125 g ai/ha)
0: Plant response rating (scale 0 to 100), Oat, Wild (wild oat (Avena fatua)) | Plant response rating, Ryegrass, Italian [8, 18] | Plant response rating, Ryegrass, Italian [8, 20] | Plant response rating, Corn (corn (Zea mays); [20]) | Plant response rating, Wheat [11, 20]
90: Sedge, Umbrella plant response rating [1] | Ducksalad plant response rating [3] | Kochia plant response rating (kochia (Kochia scoparia) [5]) | Barnyardgrass plant response rating [6, 21] | Ragweed plant response rating [7, 21] | Plant response rating, Foxtail, Giant [10, 18] | Foxtail, Giant plant response rating [10, 21] | Plant response rating, Kochia (kochia (Kochia scoparia) [12]; [20])
60: Plant response rating (scale 0 to 100), Chickweed [4] | Chickweed plant response rating [4]
100: Plant response rating, Ragweed [7, 19] | Plant response rating, Ragweed [7, 20] | Plant response rating, Pigweed [9, 18] | Plant response rating, Pigweed [9, 19] | Pigweed plant response rating [9, 21] | Plant response rating, Kochia (kochia (Kochia scoparia) [12]; [19]) | Kochia plant response rating (kochia (Kochia scoparia) [12]; [21]) | Plant response rating, Galium [13, 19]
15: Rice plant response rating (rice (Oryza sativa))
70: Plant response rating, Barnyardgrass [6, 19] | Plant response rating, Ragweed [7, 18] | Plant response rating, Pigweed [9, 20]
50: Plant response rating, Barnyardgrass [6, 18] | Plant response rating, Foxtail, Giant [10, 20]
20: Plant response rating, Barnyardgrass [6, 20] | Plant response rating, Ryegrass, Italian [8, 19]
55: Barnyardgrass plant response rating [2]
10: Oat, Wild plant response rating (wild oat (Avena fatua); [15]) | Oat, Wild plant response rating (wild oat (Avena fatua); [16]) | Plant response rating, Oat, Wild (wild oat (Avena fatua); [17])
85: Plant response rating, Chickweed ([4]; 125 g ai/ha) | Plant response rating (scale 0 to 100), Kochia (kochia (Kochia scoparia) [5])
40: Plant response rating, Wheat [11, 19]
